Assay results: patent US7795378B2, “Peptide compositions for treatment of sexual dysfunction” (Palatin Technologies, Inc., priority 2002, dated 2010)
*1 amine or outer side, *2 acyl side, *3 side chain or, on linkers, in order; H or OH if unused. Where a SMILES comes first, the peptide text is derived from it. [ ]: non-standard residue; d: D form. The star is where a group is joined. Arg(NO2) = N=C(NCCC[C@H](N)C(=O)O)N[N+](=O)[O-]; Ser(Bzl) = O=C([C@H](COCc1ccccc1)N[*:1])[*:2]; dPhe(4-Cl) = N[C@H](Cc1ccc(Cl)cc1)C(=O)O; d2Nal = N[C@H](Cc1ccc2ccccc2c1)C(=O)O; Cit = NC(=O)NCCC[C@H](N)C(=O)O; Orn = NCCC[C@H](N)C(=O)O; Ahp = NCCCCCCC(=O)O; Bn = c1ccc(C*)cc1

Assays:
[1] = target: T1, hMC4-R (Homo sapiens, UniProt P32245); assay: Competitive inhibition binding assay with 125I-NDP-MSH, MC4 receptor; conditions: 10 μM peptide, 0 assigned when raw inhibition between −10% and 10%, read-out: % Inhibition at 10 μM concentration at MC4-Receptor
T1 construct: expressed in transfected cells
Method: (§1) Competitive inhibition binding assay was conducted using membranes prepared from hMC3-R, hMC4-R, hMC5-R, and B-16 mouse melanoma cells (containing MC1-R) using 0.4 nM ^125I-NDP-MSH (0.2 nM for MCL-R) (New England Nuclear, Boston, Mass., USA) in 50 mM HEPES buffer containing 1 mM MgCl2, 2 mM CaCl2, and 5 mM KCl, at pH 7.2. The assay tube also contained a chosen concentration of the peptides of this invention, for determining inhibition of the binding of ^125I-NDP-MSH to its receptor. Non-specific binding was measured by complete inhibition of binding of ^125I-NDP-MSH in the assay in the presence of 1 μM α-MSH. Incubation was for 90 minutes at 37° C., after which the assay mixture was filtered and the membranes washed three times with ice cold buffer. The filter was dried and counted in a gamma counter for remaining radioactivity bound to the membranes. 100% specific binding was defined as the difference in radioactivity (cpm) bound to cell membranes in the absence and presence of 1 μM α-MSH. The cpm obtained in the presence of peptides of this invention were normalized with respect to 100% specific binding to determine the percent inhibition of ^125I-NDP-MSH binding. Each assay was conducted in triplicate.
(§2) The binding of the peptides of Examples 1 to 13, inclusive, to melanocortin receptors was evaluated, with results shown on Table 1. Relative binding was determined by competitive inhibition using an α-MSH analog, iodinated NDP-MSH. B16-Fl mouse melanoma cells were used as the source of MC1 receptors and HEK 293 cells, transfected with human melanocortin receptor sequences, were used as the source of MC3, MC4 and MC5 receptors. A standard competitive binding assay protocol as described above was followed, using ^125I-NDP-MSH as the radioligand. A “0” percent inhibition was assigned when the raw percent inhibition, as an average of at least triplicate measures, was between −10% and 10%; in the majority of instances, the raw percent inhibition was between −10% and 0% inhibition.

[2] = target: T2, hMC3-R (Homo sapiens, UniProt P41968); assay: Competitive inhibition binding assay with 125I-NDP-MSH, MC3 receptor; conditions: 10 μM peptide, 0 assigned when raw inhibition between −10% and 10%, read-out: % Inhibition at 10 μM concentration at MC3-Receptor
T2 construct: expressed in transfected cells; host or cells: HEK 293 cells (membranes)
Method: as §1, §2

[3] = target: T3, hMC5-R (Homo sapiens, UniProt P33032); assay: Competitive inhibition binding assay with 125I-NDP-MSH, MC5 receptor; conditions: 10 μM peptide, 0 assigned when raw inhibition between −10% and 10%, read-out: % Inhibition at 10 μM concentration at MC5-Receptor
T3 construct: expressed in transfected cells; host or cells: HEK 293 cells (membranes)
Method: as §1, §2

[4] = target: T4, MC1-R (B16-F1 mouse melanoma cells) (Mus musculus, UniProt Q01727); assay: Competitive inhibition binding assay with 125I-NDP-MSH, MC1 receptor; conditions: 10 μM peptide, 0 assigned when raw inhibition between −10% and 10%, read-out: % Inhibition at 10 μM concentration at MC1-Receptor
T4 construct: B-16 mouse melanoma cells (containing MC1-R); endogenous in cells; host or cells: B16-F1 mouse melanoma cells (membranes)
Method: as §1, §2

[5] = test system: male Sprague-Dawley rats; assay: Induction of penile erections in male rats; assay type: in vivo, rat
Method: The ability of the peptides of Examples 1 to 13 to induce penile erection in male rats was evaluated. Male Sprague-Dawley rats weighing 200-250 g were kept on a 12 hour on/off light cycle with food and water ad libitum. All behavioral studies were performed between 10 a.m. and 5 p.m. Groups of 4-8 rats were treated with peptides at a variety of doses via intravenous administration. Immediately after administration, rats were placed into individual polystyrene cages (27 cm long, 16 cm wide, and 25 cm high) for behavioral observation.
The efficacious dose of NH2—(CH2)6CO-Ser(Bzl)-D-Phe(4-Cl)-Arg, made as in Example 1 above, to induce penile erection in Sprague Dawley rats by intravenous dosing and oral administration was determined. […] NH2—(CH2)6CO-Ser(Bzl)-D-Phe(4-Cl)-Arg was efficacious at doses as low as 0.1 to 1 μg/kg of body weight when administered by oral means, and at doses lower than 0.001 μg/kg of body weight when administered by intravenous means.
The efficacious dose of NH2—(CH2)6—CO-Ser(Bzl)-D-Phe(4-Cl)-Arg(NO2), made as in Example 5 above, to induce penile erection in Sprague Dawley rats by intravenous dosing was determined. […] It was determined that NH2—(CH2)6—CO-Ser(Bzl)-D-Phe(4-Cl)-Arg(NO2) was efficacious at doses as low as 0.001 to 10 μg/kg of body weight when administered by intravenous means, with efficacy determined by induction of penile erection in 100% of animals. The optimal dose response was at 1 μg/kg of body weight. FIG. 1 depicts the dose response profile, with the error bars depicting standard deviation where n (the number of animals) is between 8 and 19, depending on the dose point.
The efficacious dose of NH2—(CH2)6—CO-Ser(Bzl)-D-Phe(4-Cl)-Arg(NO2), made as in Example 5 above, to induce penile erection in Sprague Dawley rats by intranasal administration using a micropipetor to deliver 25 μL of solution into one nostril was determined. […] It was determined that NH2—(CH2)6—CO-Ser(Bzl)-D-Phe(4-Cl)-Arg(NO2) was efficacious at doses between 0.01 μg/kg and 100 μg/kg of body weight when administered by intranasal means. The peak dose response was at an intranasal dose of 0.1 μg/kg of body weight.

[6] = test system: male rats; assay: Induced penile erections after pre-administration of MC4-R antagonist SHU9119; assay type: in vivo, rat; conditions: SHU9119 approximately 5 minutes before peptide
From the text: It is known that MC4-R antagonists inhibit the erectile activity of MC4-R agonists in a dose dependent manner. Such antagonists include SHU9119, a nonselective melanocortin antagonist of the formula Ac-Nle-cyc/o(-Asp-His-D-Nal(2′)-Arg-Trp-Lys)-NH2 (Hruby V. J., Lu D., Sharma S. D., et al. Cyclic lactam alpha-melanotropin analogues of Ac-Nle^4-cyclo[Asp^5, D-Phe^7, Lys^10]-NH2 with bulky aromatic amino acids at position 7 show high antagonist potency and selectivity at specific melanocortin receptors. J Med Chem 38:3454-3461 (1995)). Antagonists such as SHU9119 are known to inhibit MT-II and other known melanocortin receptor-specific agonists that induce erectile activity. SHU9119 was administered to male rats approximately 5 minutes before administration of either NH2—(CH2)6CO-Ser(Bzl)-D-Phe(4-Cl)-Arg or NH2—(CH2)6CO-Ser(Bzl)-D-Phe(4-Cl)-Arg-Trp-NH2, with Ac-Nle-cyc/o(Asp-His-D-Phe-Arg-Trp-Lys)-OH, a known MC4-R agonist, as a positive control.

T4 sequence (Q01727 whole entry): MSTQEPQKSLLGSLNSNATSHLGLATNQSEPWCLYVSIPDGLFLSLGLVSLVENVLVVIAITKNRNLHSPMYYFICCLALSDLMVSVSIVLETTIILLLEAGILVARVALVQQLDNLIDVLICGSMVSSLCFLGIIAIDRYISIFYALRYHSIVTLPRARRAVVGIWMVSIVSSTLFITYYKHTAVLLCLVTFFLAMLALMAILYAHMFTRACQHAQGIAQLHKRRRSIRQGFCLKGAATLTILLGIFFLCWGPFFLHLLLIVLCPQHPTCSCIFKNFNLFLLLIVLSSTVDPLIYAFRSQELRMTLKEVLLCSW
T3 sequence (P33032 whole entry): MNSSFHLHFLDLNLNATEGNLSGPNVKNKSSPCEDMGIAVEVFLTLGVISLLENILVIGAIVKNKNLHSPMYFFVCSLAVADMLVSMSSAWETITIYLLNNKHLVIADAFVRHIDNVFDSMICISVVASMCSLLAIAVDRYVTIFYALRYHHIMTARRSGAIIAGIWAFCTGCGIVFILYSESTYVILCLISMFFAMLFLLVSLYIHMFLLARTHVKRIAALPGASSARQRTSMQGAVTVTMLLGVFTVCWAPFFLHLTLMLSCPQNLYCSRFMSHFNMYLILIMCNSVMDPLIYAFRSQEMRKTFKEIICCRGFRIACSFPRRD
T2 sequence (P41968 whole entry): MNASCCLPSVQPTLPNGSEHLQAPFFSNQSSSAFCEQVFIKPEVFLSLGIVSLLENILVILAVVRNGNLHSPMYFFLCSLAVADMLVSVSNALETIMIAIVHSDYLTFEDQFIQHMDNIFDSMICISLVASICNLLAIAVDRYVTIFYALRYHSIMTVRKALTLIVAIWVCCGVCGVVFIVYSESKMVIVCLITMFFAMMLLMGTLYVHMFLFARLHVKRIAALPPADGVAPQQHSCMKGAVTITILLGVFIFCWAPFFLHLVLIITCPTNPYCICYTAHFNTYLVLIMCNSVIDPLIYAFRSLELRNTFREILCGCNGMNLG
T1 sequence (P32245 whole entry): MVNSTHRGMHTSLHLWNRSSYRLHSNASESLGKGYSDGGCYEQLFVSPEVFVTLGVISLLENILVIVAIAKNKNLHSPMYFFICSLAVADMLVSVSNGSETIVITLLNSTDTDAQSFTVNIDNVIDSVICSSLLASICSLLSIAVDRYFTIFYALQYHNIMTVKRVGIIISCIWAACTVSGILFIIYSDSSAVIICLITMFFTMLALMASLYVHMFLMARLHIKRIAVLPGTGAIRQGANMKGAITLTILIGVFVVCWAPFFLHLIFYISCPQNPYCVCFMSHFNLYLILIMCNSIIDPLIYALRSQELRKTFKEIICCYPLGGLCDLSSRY

| Molecule | inhibition at 10 µM [1] [%] | inhibition at 10 µM [2] [%] | inhibition at 10 µM [3] [%] | inhibition at 10 µM [4] [%] | animals with induction of penile erection at efficacious doses ([5]; intravenous, 0.001 to 10 μg/kg) [%] | peak (optimal) dose response, intranasal ([5]; male Sprague Dawley rats) [µg/kg] | peak (optimal) dose response, intranasal ([5]; male Sprague Dawley rats, listed as NH2—(CH2)6Co-Ser(Bzl)-D-Phe(4-Cl)-Arg(NO2)) | optimal dose response, intravenous ([5]; male Sprague Dawley rats, intravenous) [µg/kg] | effect of SHU9119 pre-administration on induced erections [6] |
| --- | --- | --- | --- | --- | --- | --- | --- | --- | --- |
| CC(=O)N[C@@H](COCc1ccccc1)C(=O)N[C@H](Cc1ccc(Cl)cc1)C(=O)N[C@@H](CCCNC(=N)N)C(=O)O [Ac-Ser(Bzl)-D-Phe(4-Cl)-Arg] (Ac-Ser(Bn)-[dPhe(4-Cl)]-Arg-OH) | 0 | 0 | 0 | 0 | – | – | – | – | – |
| C[C@H](NC(=O)CCCCCCN)C(=O)N[C@H](Cc1ccc(Cl)cc1)C(=O)N[C@@H](CCCNC(=N)N)C(=O)O [NH2—(CH2)6—CO-Ala-D-Phe(4-Cl)-Arg] (H-[Ahp]A[dPhe(4-Cl)]R-OH) | 0 | 0 | 0 | 0 | – | – | – | – | – |
| C[C@@H](NC(=O)[C@H](COCc1ccccc1)NC(=O)CCCCCCN)C(=O)N[C@@H](CCCNC(=N)N)C(=O)O [NH2—(CH2)6—CO-Ser(Bzl)-D-Ala-Arg] (H-[Ahp]S(Bn)[dA]R-OH) | 0 | 0 | 0 | 0 | – | – | – | – | – |
| N=C(N)NCCC[C@H](NC(=O)[C@@H](Cc1ccc2ccccc2c1)NC(=O)[C@H](COCc1ccccc1)NC(=O)CCCCCCN)C(N)=O [NH2—(CH2)6—CO-Ser(Bzl)-D-Nal 2-Arg-NH2] (H-[Ahp]S(Bn)[d2Nal]R-NH2) | 0 | 0 | 0 | 0 | – | – | – | – | – |
| N=C(N)NCCC[C@H](NC(=O)[C@@H](Cc1ccc2ccccc2c1)NC(=O)[C@H](COCc1ccccc1)NC(=O)CCCCCCN)C(=O)O [NH2—(CH2)6—CO-Ser(Bzl)-D-Nal 2-Arg] (H-[Ahp]S(Bn)[d2Nal]R-OH) | 0 | 0 | 0 | 0 | – | – | – | – | – |
| C[C@H](NC(=O)[C@@H](Cc1ccc(Cl)cc1)NC(=O)[C@H](COCc1ccccc1)NC(=O)CCCCCCN)C(=O)O [NH2—(CH2)6—CO-Ser(Bzl)-D-Phe(4-Cl)-Ala] (H-[Ahp]S(Bn)[dPhe(4-Cl)]A-OH) | 0 | 0 | 0 | 0 | – | – | – | – | – |
| NCCCCCCC(=O)N[C@@H](COCc1ccccc1)C(=O)N[C@H](Cc1ccc(Cl)cc1)C(=O)N[C@@H](CCCNC(N)=N[N+](=O)[O-])C(=O)O [NH2—(CH2)6—CO-Ser(Bzl)-D-Phe(4-Cl)-Arg(NO2)] (H-[Ahp]S(Bn)[dPhe(4-Cl)][Arg(NO2)]-OH) | 0 | 0 | 0 | 0 | 100 | 0.1 | about 0.1 μg/kg | 1 | – |
| N=C(N)NCCC[C@H](NC(=O)[C@@H](Cc1ccc(Cl)cc1)NC(=O)[C@H](COCc1ccccc1)NC(=O)CCCCCCN)C(N)=O [NH2—(CH2)6—CO-Ser(Bzl)-D-Phe(4-Cl)-Arg-NH2] (H-[Ahp]S(Bn)[dPhe(4-Cl)]R-NH2) | 0 | 0 | 0 | 0 | – | – | – | – | – |
| NCCCCCCC(=O)N[C@@H](COCc1ccccc1)C(=O)N[C@H](Cc1ccc(Cl)cc1)C(=O)N[C@@H](CCCNC(N)=O)C(=O)O [NH2—(CH2)6—CO-Ser(Bzl)-D-Phe(4-Cl)-Cit] (H-[Ahp]S(Bn)[dPhe(4-Cl)][Cit]-OH) | 0 | 0 | 0 | 0 | – | – | – | – | – |
| NCCCCCCC(=O)N[C@@H](COCc1ccccc1)C(=O)N[C@H](Cc1ccc(Cl)cc1)C(=O)N[C@@H](CCCCN)C(=O)O [NH2—(CH2)6—CO-Ser(Bzl)-D-Phe(4-Cl)-Lys] (H-[Ahp]S(Bn)[dPhe(4-Cl)]K-OH) | 0 | 0 | 0 | 0 | – | – | – | – | – |
| NCCCCCCC(=O)N[C@@H](COCc1ccccc1)C(=O)N[C@H](Cc1ccc(Cl)cc1)C(=O)N[C@@H](CCCN)C(=O)O [NH2—(CH2)6—CO-Ser(Bzl)-D-Phe(4-Cl)-Orn] (H-[Ahp]S(Bn)[dPhe(4-Cl)][Orn]-OH) | 0 | 0 | 0 | 0 | – | – | – | – | – |
| N=C(N)NCCC[C@H](NC(=O)[C@@H](Cc1ccc(Cl)cc1)NC(=O)[C@@H](N)COCc1ccccc1)C(=O)O [Ser(Bzl)-D-Phe(4-Cl)-Arg] (H-Ser(Bn)-[dPhe(4-Cl)]-Arg-OH) | 0 | 0 | 0 | 0 | – | – | – | – | – |
| NH2—(CH2)6CO-Ser(Bzl)-D-Phe(4-Cl)-Arg-Trp-NH2 ({NH2‑(CH2)6‑CO}-[Ser(Bzl)][dPhe(4-Cl)]RW-NH2) | – | – | – | – | – | – | – | – | resulted in erections at a rate equivalent to that obtained without pre-administration of SHU9119 |
